According to publication PMC10517971, “An inverse agonist of orphan receptor GPR61 acts by a G protein-competitive allosteric mechanism” (Nature Communications, 2023):

Assays:
Human PDE5A1 = Human PDE5A1 (Homo sapiens, UniProt O76074); assay: Phosphodiesterase Assay (SPA); assay type: biochemical
Method: (§1) 45 37 °C for 30 min (DAT) or 60 min (NET and SER T). The plate is transferred to the FLIPR Tetra®
(§2) 46 instrument and the fluorescence of each well was measured (Ex 470- 495 […]).
(§3) 47 The level of fluores cenc e measured dire ctly relates to the level of uptake of the dye labelled amine,
(§4) 48 with a reduction in levels being related to an inhibition of the respective transporter.
(§5) 49 Phosphodiesterase Assays
(§6) 50 The phosphodiesteras e (P DE) assays m easure the conversion of 3’, 5 ’ -[3H ] cAMP to 5’-[3H] AMP
(§7) 51 (for PDE 3A1 and 4D3) or 3’, 5’-[3H] cGMP to 5’-[3H] GMP (for 5A1) by the relevant PDE
(§8) 52 enzyme subtype. Yttrium silicate (YSi) scintillation proximity (SPA) beads bind selectively to 5’-
(§9) 53 [3H] AMP or 5’-[3H] GMP, with the magnitude of radioactive counts being directly related to
(§10) 54 PDE enzymatic activity. The ass ay was performed in white walled op aque b ottom 384-well plates.
(§11) 55 Test compound (1 µL) in dimethyl sulfoxide was added to each well. Enzyme solution was then
(§12) 56 added to each well in buffer (in mM: Trizma, 50 (pH7.5); MgCl2, 1.3 mM) containing Brij 35
(§13) 57 (0.01% (v/v)). Subsequently, 20 µL of 3’,5’-[3H] cGMP (125 nM) or 20 µL of 3’,5’-[3H] cAMP
(§14) 58 (50 nM) was added to each well to start the reaction and the plate was incubated for 30 min at
(§15) 59 25 °C. The reaction was terminated by the addition of 20 µL of PDE YSi SPA beads (Perkin Elmer,
(§16) 60 Waltham, MA). Followin g an additional 8 h incubation period the plates were read on a MicroBeta
(§17) 61 radioactive plat e counter (Perkin Elmer, Waltham, MA, USA) to determine radioactive counts per
(§18) 63 Bromodomain-Containing Protein 4 (BRD4) Binding Assay
(§19) 64 The BRD4 fluorescent polarization binding assay uses purified His-tagged BRD4 protein and its
(§20) 65 interaction with a Cy5 labelled small molecule probe that binds to the BRD4 site involved in the
(§21) 66 interaction with tetra-acetylated histone H4 peptide. In brief, the assay is performed in low volume

Human PDE4D3 = Human PDE4D3 (Homo sapiens, UniProt Q08499); assay: Phosphodiesterase Assay (SPA); assay type: biochemical
Method: as §1, §2, §3, §4, §5, §6, §7, §8, §9, §10, §11, §12, §13, §14, §15, §16, §17, §18, §19, §20, §21

Cav1.2 = Cav1.2 (Homo sapiens, UniProt Q13936); assay: cell-based
From the text: 105 hERG, Nav1.5 and Cav1.2 Ion Channel Profiling
106 Ionic curr ents wer e evalu ated in the whole-cell con figuration using the Qube384 automated planar
107 patch clamp platform (Sophion Bioscience A/S, Ballerup, Denmark). […]
113 experiments, the ext ernal solution was composed of (in mM): 137.9 NaCl, 5.3 KCl, 0.49 MgCl2,
115 mOsM. The internal solution contained (in mM ): 27 CF, 112 CsCl, 2 MgCl2, 10 EGTA, 10
116 HEPES, 2 Na2ATP, pH 7.2, 305 mOsM. […]
123 at a rate of 0.05 Hz. Peak hERG current was measured during the ramp. The Cav1.2 current was
124 elicited by a voltage step to 0 mV for 150 ms from a holding potential of -40 mV. Voltage steps
125 were repeated at 0.05 Hz, and Cav1.2 amplitude was measured as the peak current at 0 mV. For
126 Nav1.5 current, from a holding potential of - 80 mV, a 200 ms prepulse to - 120 mV was used to
127 homogenize channel inactivation, followed by a 40 ms step to a test potential of - 15 mV.
128 Membrane potential was further depolarized to +40 mV for 200 ms to completely inactivate the
129 peak Nav1.5 current, followed by a ramp from +40 mV to - 80 mV (-1.2 mV/ms). This voltage
130 pattern was repeated at 0.1 Hz, with peak Nav1.5 defined as the maximum current during the step
131 to - 15 mV. All studies were conducted at 23° C.
132 Compounds were dissol ved and initially diluted in dimethyl sulfoxide (DMSO), with a final
133 dilution in external solution to generate final working concent rations. The final DMSO
134 concentration in all experiments was 0.33% (v/v).
135 For all protocols three vehicle periods each lasting 5 minutes were applied to establish a stable
136 baseline. For the standard protocol this was followed by the addition of increasing concentrations
137 of test compound, with each exposure lasting 5 minutes. For the “extended” protocol following
138 the three- vehi cle additional each well subsequentl y received a single concentration of compound.
139 This application was repeated three times for each well, via a flowthrough addition where the
140 solution was replaced wi th the same compound concentration with each addition. Each exposure
142 Patch clamp data were analyzed using Assay Software 6.4.72 (Sophion Bioscience A/S, Ballerup,
143 Denmark). Current amplitudes were determined by averaging the last 4 currents under each test
144 condition. The percentage inhibition of each compound was determined by taking the ratio of
145 current amplitude measured in the presence of various concentrations of the test compound
146 (ICompound) versus the vehicle control current (IVehicle):
148 A dose-response curve was generat ed and fit to the Hill equation by the Sophion Analyzer software
149 to determine an IC50 value for each compound. The minimum and the slope of the fit were free
150 fitted, with the top being fixed to 100% inhibition. […]

Human PED9A1 = Human PED9A1 (Homo sapiens, UniProt O76083); assay: Phosphodiesterase Assay (SPA); assay type: biochemical
Chain of Human PED9A1 (O76083 whole entry): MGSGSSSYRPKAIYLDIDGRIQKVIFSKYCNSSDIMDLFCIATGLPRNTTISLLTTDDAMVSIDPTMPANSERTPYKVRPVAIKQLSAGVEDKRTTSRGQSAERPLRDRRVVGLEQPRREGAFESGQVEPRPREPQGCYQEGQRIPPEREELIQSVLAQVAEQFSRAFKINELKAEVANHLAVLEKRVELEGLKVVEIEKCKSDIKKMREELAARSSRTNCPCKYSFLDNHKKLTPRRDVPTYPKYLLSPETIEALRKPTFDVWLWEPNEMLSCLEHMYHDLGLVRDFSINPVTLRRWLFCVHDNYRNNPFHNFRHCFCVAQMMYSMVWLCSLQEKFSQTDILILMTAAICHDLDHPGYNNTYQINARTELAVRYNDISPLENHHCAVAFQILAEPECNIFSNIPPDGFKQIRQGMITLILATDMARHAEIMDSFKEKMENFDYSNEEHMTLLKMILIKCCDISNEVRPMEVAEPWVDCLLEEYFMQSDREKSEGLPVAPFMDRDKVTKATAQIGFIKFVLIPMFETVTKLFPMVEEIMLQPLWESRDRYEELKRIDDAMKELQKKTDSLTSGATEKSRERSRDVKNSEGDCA

Chain of Cav1.2 (Q13936 whole entry): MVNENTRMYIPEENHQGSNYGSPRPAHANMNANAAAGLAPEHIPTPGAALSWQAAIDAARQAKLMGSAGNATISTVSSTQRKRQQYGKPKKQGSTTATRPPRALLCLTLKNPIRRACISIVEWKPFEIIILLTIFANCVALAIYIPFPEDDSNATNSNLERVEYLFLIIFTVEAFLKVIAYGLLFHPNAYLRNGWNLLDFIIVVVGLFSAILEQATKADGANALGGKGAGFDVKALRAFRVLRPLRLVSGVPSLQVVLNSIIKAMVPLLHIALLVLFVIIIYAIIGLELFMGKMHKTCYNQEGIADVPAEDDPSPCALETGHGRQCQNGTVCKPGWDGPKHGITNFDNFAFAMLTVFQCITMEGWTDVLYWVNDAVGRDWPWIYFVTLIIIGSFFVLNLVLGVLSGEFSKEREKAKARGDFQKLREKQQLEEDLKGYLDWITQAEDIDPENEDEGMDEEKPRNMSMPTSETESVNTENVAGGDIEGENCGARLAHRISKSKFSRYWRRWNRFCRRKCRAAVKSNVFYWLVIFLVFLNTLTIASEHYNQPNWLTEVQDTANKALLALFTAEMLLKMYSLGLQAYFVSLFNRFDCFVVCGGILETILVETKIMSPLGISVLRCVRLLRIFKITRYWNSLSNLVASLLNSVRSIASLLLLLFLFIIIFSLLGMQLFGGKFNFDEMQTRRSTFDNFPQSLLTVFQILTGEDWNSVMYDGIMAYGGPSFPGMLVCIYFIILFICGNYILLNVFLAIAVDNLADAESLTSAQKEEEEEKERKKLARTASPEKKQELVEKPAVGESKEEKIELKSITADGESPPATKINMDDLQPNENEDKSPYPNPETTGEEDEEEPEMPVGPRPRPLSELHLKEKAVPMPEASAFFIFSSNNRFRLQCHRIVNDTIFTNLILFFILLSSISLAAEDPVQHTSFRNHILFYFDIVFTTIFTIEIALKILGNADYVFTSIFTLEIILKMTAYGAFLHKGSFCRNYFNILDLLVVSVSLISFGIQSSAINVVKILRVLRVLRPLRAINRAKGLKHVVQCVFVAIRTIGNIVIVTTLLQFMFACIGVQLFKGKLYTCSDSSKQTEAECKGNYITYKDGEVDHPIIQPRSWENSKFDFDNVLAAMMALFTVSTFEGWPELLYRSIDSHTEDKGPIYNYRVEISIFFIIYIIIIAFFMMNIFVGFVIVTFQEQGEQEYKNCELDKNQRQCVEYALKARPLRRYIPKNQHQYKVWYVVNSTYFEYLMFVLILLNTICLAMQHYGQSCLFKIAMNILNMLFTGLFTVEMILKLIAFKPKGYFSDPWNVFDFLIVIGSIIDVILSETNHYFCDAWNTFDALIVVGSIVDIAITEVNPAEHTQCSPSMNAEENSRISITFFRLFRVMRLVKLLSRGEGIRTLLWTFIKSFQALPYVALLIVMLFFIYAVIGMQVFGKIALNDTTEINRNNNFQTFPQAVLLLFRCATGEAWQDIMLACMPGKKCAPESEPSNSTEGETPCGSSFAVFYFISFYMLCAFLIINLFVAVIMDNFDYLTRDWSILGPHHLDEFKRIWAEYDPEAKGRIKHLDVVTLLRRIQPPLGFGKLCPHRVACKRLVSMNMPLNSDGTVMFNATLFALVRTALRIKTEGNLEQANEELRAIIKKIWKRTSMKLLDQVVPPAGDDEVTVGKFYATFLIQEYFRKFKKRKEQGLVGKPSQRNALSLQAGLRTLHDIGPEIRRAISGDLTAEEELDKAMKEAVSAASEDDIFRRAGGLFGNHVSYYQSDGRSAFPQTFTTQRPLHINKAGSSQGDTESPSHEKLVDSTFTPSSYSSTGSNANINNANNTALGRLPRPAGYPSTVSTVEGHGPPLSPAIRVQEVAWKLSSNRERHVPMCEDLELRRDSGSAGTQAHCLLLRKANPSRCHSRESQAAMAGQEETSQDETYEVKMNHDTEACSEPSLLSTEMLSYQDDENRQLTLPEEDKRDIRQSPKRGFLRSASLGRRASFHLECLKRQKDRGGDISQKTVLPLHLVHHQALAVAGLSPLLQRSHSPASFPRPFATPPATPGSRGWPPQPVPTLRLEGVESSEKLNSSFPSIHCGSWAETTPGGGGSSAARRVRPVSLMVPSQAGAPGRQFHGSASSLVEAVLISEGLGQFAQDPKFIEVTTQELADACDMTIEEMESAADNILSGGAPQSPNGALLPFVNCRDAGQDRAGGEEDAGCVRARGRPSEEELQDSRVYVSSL
Chain of Cav1.2 (Q08289 whole entry partner): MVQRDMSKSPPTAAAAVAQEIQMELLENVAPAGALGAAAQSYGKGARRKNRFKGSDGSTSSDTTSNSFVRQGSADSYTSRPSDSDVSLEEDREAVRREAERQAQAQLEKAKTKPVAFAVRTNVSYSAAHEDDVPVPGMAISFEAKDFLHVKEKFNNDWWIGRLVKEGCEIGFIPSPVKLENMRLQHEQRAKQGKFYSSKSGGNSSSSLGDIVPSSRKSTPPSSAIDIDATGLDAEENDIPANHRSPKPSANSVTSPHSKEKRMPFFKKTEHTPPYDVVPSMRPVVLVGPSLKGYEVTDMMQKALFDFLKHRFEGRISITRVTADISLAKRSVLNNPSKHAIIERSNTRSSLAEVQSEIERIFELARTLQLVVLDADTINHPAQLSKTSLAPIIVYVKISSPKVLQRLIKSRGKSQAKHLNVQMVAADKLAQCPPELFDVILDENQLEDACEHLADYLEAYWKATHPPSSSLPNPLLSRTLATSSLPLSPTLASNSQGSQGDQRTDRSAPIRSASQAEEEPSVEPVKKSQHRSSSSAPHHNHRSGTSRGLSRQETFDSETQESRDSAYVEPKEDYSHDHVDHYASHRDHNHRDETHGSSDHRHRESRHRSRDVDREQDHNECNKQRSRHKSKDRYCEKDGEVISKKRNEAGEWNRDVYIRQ
Chain of Cav1.2 (P54289 25-956 partner limits assumed): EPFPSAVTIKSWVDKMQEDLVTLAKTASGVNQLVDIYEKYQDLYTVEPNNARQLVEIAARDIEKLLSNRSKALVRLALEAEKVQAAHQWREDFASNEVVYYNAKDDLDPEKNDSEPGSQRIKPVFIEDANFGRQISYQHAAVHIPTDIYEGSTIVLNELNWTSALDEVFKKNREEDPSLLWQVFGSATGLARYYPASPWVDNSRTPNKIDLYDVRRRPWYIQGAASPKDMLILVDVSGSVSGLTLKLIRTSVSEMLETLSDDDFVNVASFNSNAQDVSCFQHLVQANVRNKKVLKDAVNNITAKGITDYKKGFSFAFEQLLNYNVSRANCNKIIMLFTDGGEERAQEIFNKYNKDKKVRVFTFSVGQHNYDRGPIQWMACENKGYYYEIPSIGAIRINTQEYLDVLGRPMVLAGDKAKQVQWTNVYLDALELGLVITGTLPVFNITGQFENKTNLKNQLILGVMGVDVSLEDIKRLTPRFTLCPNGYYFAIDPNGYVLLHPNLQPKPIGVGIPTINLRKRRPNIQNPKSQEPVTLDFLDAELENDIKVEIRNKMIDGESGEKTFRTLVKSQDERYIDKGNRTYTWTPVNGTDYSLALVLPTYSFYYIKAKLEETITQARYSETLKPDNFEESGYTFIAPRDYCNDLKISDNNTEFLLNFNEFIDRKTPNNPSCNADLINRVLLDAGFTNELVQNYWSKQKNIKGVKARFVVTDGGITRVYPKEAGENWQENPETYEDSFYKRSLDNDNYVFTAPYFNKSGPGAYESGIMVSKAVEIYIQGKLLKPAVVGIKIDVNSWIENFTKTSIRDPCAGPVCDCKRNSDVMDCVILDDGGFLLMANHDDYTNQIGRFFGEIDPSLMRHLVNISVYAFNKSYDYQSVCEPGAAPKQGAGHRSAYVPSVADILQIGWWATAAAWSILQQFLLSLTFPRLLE
Chain of Cav1.2 (P54289 957-1103 partner limits assumed): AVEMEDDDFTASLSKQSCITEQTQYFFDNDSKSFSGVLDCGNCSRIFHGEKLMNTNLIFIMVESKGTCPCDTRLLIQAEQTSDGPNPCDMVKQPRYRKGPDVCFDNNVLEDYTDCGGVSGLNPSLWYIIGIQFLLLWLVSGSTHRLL

CCOc1cc(C)nc(N(CCOC)S(=O)(=O)c2ccc(NCc3c(F)cncc3F)nc2OC)n1 [Compound 1]
IC50 (Human PDE5A1): 155 µM | IC50 (Human PDE4D3): > 35 µM | IC50 (Cav1.2; IC50 (nM), Calcium Channel Cav1 (so in the source), standard protocol): 44800 nM | IC50 (Cav1.2; Ion Channel Extended Protocol IC50 (nM), Period 1st, Cav1.2, extended protocol, 1st period): 21100 nM | IC50 (Cav1.2; Ion Channel Extended Protocol IC50 (nM), Period 2nd, Cav1.2, extended protocol, 2nd period): 10700 nM | IC50 (Cav1.2; Ion Channel Extended Protocol IC50 (nM), Period 3rd, Cav1.2, extended protocol, 3rd period): 5930 nM | IC50 (Human PED9A1): > 200 µM
